Measured values taken from patent US20230212215A1, “GLUCOCORTICOID RECEPTOR MODULATORS” (TRUSTEES OF DARTMOUTH COLLEGE, priority 2020, published 2023).

Biological target: T1, human GR (Homo sapiens, UniProt P04150)
T1 construct: purchased Indigo Biosciences
T1 sequence (P04150 1-777): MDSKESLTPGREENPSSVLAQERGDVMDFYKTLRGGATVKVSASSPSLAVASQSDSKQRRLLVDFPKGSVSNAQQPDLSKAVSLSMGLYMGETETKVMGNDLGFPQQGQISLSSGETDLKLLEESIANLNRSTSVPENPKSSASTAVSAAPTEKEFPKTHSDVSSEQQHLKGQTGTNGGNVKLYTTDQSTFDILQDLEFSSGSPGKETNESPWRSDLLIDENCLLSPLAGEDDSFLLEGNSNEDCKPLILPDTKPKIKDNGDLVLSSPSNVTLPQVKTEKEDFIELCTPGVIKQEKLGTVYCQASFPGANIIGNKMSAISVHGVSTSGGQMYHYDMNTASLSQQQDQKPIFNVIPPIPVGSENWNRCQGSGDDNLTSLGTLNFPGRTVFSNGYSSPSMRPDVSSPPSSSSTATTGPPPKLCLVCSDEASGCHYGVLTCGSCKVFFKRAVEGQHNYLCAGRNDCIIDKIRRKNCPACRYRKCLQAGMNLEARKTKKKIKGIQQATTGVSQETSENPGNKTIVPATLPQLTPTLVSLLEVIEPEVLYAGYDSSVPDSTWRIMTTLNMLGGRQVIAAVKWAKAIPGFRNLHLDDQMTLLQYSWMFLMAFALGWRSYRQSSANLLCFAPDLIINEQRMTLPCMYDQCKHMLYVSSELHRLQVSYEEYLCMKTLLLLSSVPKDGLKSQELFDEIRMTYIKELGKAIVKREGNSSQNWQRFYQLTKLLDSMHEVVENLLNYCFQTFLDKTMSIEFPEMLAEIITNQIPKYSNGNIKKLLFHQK
Assay: human GR antagonist assay (Indigo Biosciences)
Assay type: cell-based
Excerpt: The activity of a compound can be determined using various known methods. For example, GR assays can be used. Such GR assays include binding assays using, for example, cells transfected with the human glucocorticoid receptor (NR3C1). Several cell based model systems that allow sensitive detection and monitoring of steroids or other compounds with GR bioactivity are known. Most cell based GR reporter models use transgenic gene constructs that include a glucocorticoid response element (GRE) that controls reporter gene (e.g., lucifersrase) expression. For example, a human GR Reporter Assay System is commercially available from Indigo Biosciecnes. […] The principle application of such an assay product is to quantify functional activities, either agonist or antagonist, that a compound may exert against the human glucocorticoid receptor.
The activity of certain compounds were tested in a human GR antagonist assay (Indigo Biosciences).

In the case of `Cc1ncccc1NC(=O)c1ccc2c(c1)CCC1=C3C[C@H](O)C[C@]3(C)CC[C@]12Cc1ccccc1` [Compound A, (9S,13S,16R)-9-benzyl-16-hydroxy-13-methyl-N-(2-methylpyridin-3-yl)-7,9,11,12,13,15,16,17-octahydro-6H-cyclopenta[α]phenanthrene-3-carboxamide], the “IC50 (nM)” value (Table 1) is reported as “No activity”, the EC50 (Table A) is reported as “not active” and the IC50 (text of Example 2) is reported as “not active”.
Work on `CC#C[C@]1(O)CC[C@H]2[C@@H]3CCC4=CC(=O)CCC4=C3[C@@H](c3ccc(N(C)C)cc3)C[C@@]21C` [Mifepristone, reference compound] yielded a HillSlope (Table 1) of 0.8706.
